Measurements: patent publication US7314870B2, “Compounds, their preparation and use” (Neurosearch A/S, priority 2001, dated 2008)
Where a name gives a salt, the structure may show the parent alone. Read-outs that look alike come from different tables or passages of the source.

Columns and labels:
[1] = biological target: T1, α7-subtype of nicotinic receptors (Rattus norvegicus, UniProt Q05941); assay: In vitro inhibition of 3H-α-bungarotoxine binding in rat brain
T1 construct: Cerebral cortices from male Wistar rats (150-250 g) are homogenised; from tissue; host or cells: rat cerebral cortex membrane homogenate
T1 sequence (Q05941 23-502): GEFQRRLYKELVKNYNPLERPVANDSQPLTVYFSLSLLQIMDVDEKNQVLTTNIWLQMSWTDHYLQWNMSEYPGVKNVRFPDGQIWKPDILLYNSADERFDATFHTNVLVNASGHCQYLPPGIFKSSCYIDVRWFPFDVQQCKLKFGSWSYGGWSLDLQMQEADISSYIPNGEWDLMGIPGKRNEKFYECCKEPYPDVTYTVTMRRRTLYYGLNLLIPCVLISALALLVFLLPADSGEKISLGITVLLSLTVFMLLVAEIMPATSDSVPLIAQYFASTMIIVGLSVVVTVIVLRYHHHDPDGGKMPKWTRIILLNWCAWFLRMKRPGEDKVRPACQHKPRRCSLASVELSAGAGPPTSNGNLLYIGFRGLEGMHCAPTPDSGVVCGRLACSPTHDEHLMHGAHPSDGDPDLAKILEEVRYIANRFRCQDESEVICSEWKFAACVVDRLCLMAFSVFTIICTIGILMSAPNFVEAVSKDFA

serotonin transporter = biological target: T2, serotonin transporter (Rattus norvegicus, UniProt P31652); assay: In vitro inhibition of 3H-5-hydroxytryptamine uptake in cortical synaptosomes; assay type: biochemical; conditions: 1 nM 3H-5-HT, 30 minutes at 37° C
T2 construct: Cerebral cortices from male Wistar rats (150-200 g) are homogenized; from tissue; host or cells: rat cerebral cortex synaptosomes (P2 pellet)
T2 sequence (P31652 whole entry): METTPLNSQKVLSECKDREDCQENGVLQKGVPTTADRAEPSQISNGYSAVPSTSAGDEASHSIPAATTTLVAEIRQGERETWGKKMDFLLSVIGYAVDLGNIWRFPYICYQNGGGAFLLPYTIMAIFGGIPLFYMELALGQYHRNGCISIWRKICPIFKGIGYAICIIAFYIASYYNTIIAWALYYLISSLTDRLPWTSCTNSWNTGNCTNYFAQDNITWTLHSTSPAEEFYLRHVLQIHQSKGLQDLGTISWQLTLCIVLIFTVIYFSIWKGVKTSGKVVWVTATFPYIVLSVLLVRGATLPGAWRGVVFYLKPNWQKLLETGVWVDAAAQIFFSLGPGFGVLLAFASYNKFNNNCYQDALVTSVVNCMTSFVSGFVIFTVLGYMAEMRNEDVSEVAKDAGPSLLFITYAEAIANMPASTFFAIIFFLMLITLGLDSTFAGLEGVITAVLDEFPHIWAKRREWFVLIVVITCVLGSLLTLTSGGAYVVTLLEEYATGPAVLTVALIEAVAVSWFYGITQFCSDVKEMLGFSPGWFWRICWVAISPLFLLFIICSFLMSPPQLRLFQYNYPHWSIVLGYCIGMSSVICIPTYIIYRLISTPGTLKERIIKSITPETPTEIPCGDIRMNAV
Method: In Vitro Inhibition of ^3H-5-Hydroxytyptamine Uptake in Cortical Synaptosomes
Serotonin transporters/uptake sites on nerve terminals presumably function to terminate neuronal signaling by removing serotonin from the synaptic cleft. The activity of the serotonin transporter integral protein can be measured in vitro by synaptosomal uptake of ^3H-5-hydroxytryptamine (5-HT, serotonin).
Preparations are performed at 0-4° C. Cerebral cortices from male Wistar rats (150-200 g) are homogenized for 5-10 seconds in 100 volumes of ice-cold 0.32 M sucrose containing 1 mM pargyline, using a motor driven teflon pestle in a glass homogenizing vessel. Monoamine oxidase activity is inhibited in the presence of pargyline.
The homogenate is subjected to centrifugation at 1000×g for 10 minutes. The resulting supernatant is then centrifuged at 27,000×g for 50 minutes and the supernatant is discarded. […]
Aliquots of 4.0 ml tissue suspension are added to 100 μl of test solution and 100 μl of ^3H-5-HT (1 nM, final concentration), mixed and incubated for 30 minutes at 37° C. Non-specific uptake is determined using Citalopram (1 μM, final concentration, available from Lundbeck, Denmark). […]
The amount of radioactivity on the filters is determined by conventional liquid scintillation counting. Specific uptake is calculated as the difference between total uptake and non-specific uptake. […]

Row | Compound | IC50 [1] [nM] | IC50 (serotonin transporter) [nM] | IC50 ([1]; rat cerebral cortex homogenate, 2 nM 3H-α-bungarotoxine, 2 hours at 37° C, read-out: Inhibition of 3H-α-Bungarotoxine Binding IC50) [nM]
1 | CN1C2C=C(C3=Cc4ccccc4S3(=O)=O)CC1CC2 (racemic) [Compound 2, (±)-3-2-Benzo[b]thiophenyl-1,1-dioxide)-8-methyl-8-azabicyclo[3.2.1]oct-2-ene fumaric acid salt] | 18 | 660 | –
2 | C=CCN1C2C=C(C3=Cc4ccccc4S3(=O)=O)CC1CC2 (racemic) [Compound 3, (±)-3-(2-Benzo[b]thiophenyl-1,1-dioxide)-8-allyl-8-azabicyclo[3.2.1]oct-2-ene] | – | – | 850
3 | O=S1(=O)C(C2=CC3CCC(C2)N3)=Cc2ccccc21 (racemic) [Compound 1, (±)-3-(2-Benzo[b]thiophenyl-1,1-dioxide)-8-H-8-azabicyclo[3.2.1]oct-2-ene fumaric acid salt] | – | 190 | –
